15 compounds from patent US12037324B2, “Biarylmethyl heterocycles” (Université de Montréal, priority 2016, dated 2024) can be followed below.

A word on the EC50: it is the concentration needed to bring the measured effect to its halfway point.

The target of experiment [1] is T1, AGTR1 (Homo sapiens, UniProt P30556).
T1 construct: host or cells: Pathunter CHO-K1 AGTR1 β-arrestin cell line (CHO-K1)
T1 sequence (P30556 1-359): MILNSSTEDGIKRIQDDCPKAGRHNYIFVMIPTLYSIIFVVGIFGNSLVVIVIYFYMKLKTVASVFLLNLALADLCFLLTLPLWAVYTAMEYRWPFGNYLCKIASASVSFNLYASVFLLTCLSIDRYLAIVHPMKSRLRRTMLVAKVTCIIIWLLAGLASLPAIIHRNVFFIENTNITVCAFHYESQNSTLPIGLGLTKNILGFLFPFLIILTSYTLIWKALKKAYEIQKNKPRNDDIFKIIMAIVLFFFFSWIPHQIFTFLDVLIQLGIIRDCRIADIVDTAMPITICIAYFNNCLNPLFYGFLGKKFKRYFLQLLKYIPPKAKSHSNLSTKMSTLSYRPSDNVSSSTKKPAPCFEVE
Briefly: DiscoveRx β-arrestin2 recruitment assay (enzyme complementation, Pathunter CHO-K1 AGTR1 β-arrestin cell line). The class given is cell-based. As to conditions: DiscoveRx β-arrestin2 recruitment; for DiscoveRx β-arrestin2 Ymax (%): maximal response. The gist of the method: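 Chemiluminescent enzyme-complementation read-out of β-arrestin2 recruitment to AGTR1 in engineered CHO-K1 cells after 90 min compound exposure at 37° C. Values are 4-parameter logistic EC50s in agonist mode, IC50s in antagonist mode, with efficacy relative to the maximal All response.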
For orientation: Activated receptors often draw arrestin, which recruitment assays turn into a signal.

Experiment [2] has as its target T2, hAT1R (Homo sapiens, UniProt P30556).
T2 sequence (P30556 1-359): T1 sequence (P30556 1-359)
Kind of experiment: BRET β-arrestin2 biosensor assay, higher receptor expression (hAT1R 5 ng/well), HEK293 cells. The class given is cell-based. As to conditions: for EC50: High AT1R Expression. On the technique in general: Bioluminescence resonance energy transfer reports proximity on the nanometre scale.

Experiment [3] concerns the target T2, hAT1R. Briefly: BRET Gq biosensor assay, agonist response, HEK293 cells. Type of experiment: cell-based. As to conditions: section of the 42nd table directly before the BRET P63 section. The procedure:
BRET β-arrestin2 and Gq Activation Assays
In another aspect of the invention, association of the ATIR with signaling proteins is assessed using bioluminescence resonance energy transfer assays (Stephane Angers, Ali Salahpour et al. 2002). This technology measures the association between bioluminescent and fluorescent protein tags.
Several of the plasmid constructs used in BRET experiments were previously described. Briefly, the coding sequence of β-arrestin2 was fused to Renilla luciferase II to generate β-arrestin2-Rluc (Quoyer, Janz et al. 2013). The membrane targeting motif from K-Ras, CAAX motif (GKKKKKKSKTKCVIM), was fused to Renilla GFP to create rGFP-CAAX plasmid (Namkung Y et al., Nat Commun (2016) 7, 12178). The Renilla luciferase II was inserted in the Gaq protein to generate Gaq-Rluc (Breton, Sauvageau et al. 2010). The Gγ1 protein was tagged with GFP10 to obtain GFP-Gyl, using the same strategy described previously for GFP-Gy2 (Gales, Rebois et al. 2005). The Gaq binding domain of the p63RhoGEF protein (amino acids 295-502) was fused to Renilla luciferase II to create P63-Rluc. Finally, the hAT1R plasmid construct encoding the receptor was generated by optimizing the coding sequence of human angiotensin II receptor (GeneOptimizer from ThermoFisher), and adding an artificial cleavable signal peptide from bovine prolactin ([…]) in N-terminus of the receptor to increase cell surface expression.
Gq Biosensor Assay HEK293 cells were cultured in DMEM supplemented with Penicillin-Streptomycin and 10% fetal bovine serum. Two days before the BRET experiment, HEK293 cells were transfected with hAT1R expression plasmid (200 ng/well) as well as Gaq-Rluc (100 ng/well), Gβ1 (375 ng/well) and GFP-Gγ1 (625 ng/well), using linear polyethylenimine 25 kDa (PEI) at a PEI:DNA ratio of 3:1. Transfected cells were directly seeded in 96-well plates, at a density of 35 000 cells per well, and maintained in culture for the next 48 h.
BRET experiments were carried out subsequently using the following procedures: cells were washed once with Tyrode's buffer (137 mM NaCl, 1 mM CaCl2, 0.9 mM KCl, […], 3.6 mM NaH2PO4, 5.5 mM glucose, 12 mM NaHCO3, and 25 mM HEPES, pH 7.4) and 90 μl of Tyrode's buffer was added to each well. Cells were equilibrated in their new buffer at room temperature for at least 30 minutes. Following the equilibration period, the coelenterazine substrate was first added to the cells, 10 μl per well of a 10×solution (prolume purple coelenterazine at a final concentration of 2 μM), immediately followed by compound addition using the HP D300 digital dispenser from Tecan (10 singlicate concentrations). Cells were incubated for 5 min at room temperature and BRET readings were then collected using a Synergy Neo Multi-Mode reader from BioTek with BRET2 filters 410/515, to record agonist response. […] A second reading was collected 5 min after this second addition, using the Synergy Neo Multi-Mode reader from BioTek with BRET2 filters 410/515, to record antagonist response. The BRET signal was determined by calculating the ratio of the light emitted by GFP (515 nm) over the light emitted by the Rluc (410 nm). To analyze agonist response, BRET signal values were converted into percentage of activation using the non-stimulated control as 0% and AngII maximal response as 100%. Sigmoidal concentration-response curves were generated with those normalized values using a 4-parameter logistic equation (IDBS ActivityBase software), to determine EC50 of the different compounds. In the case of antagonist response analysis, BRET signal values were converted into percentage of inhibition using the fixed dose of AngII (corresponding to the EC50) as 0% and non-stimulated control as 100%. Sigmoidal concentration-response curves were generated with those normalized values using a 4-parameter logistic equation (IDBS ActivityBase software), to determine IC50 of the different compounds.

Experiment [4] deals with T1, AGTR1. Briefly: DiscoveRx IP1 accumulation assay (HTRF), agonist mode, Pathunter CHO-K1 AGTR1 β-arrestin cell line. Type of experiment: cell-based. As to conditions: for EC50: read-out: IP-1 EC50. In short, it runs like this: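 Agonist mode in CHO-K1 AGTR1 β-arrestin cells plated 14-16 h before; compounds at varying concentrations for 90 min at 37° C, IP1 accumulation read by HTRF (D2-conjugate and anti-IP1 cryptate, 20 min room temperature). EC50 from 4-parameter logistic fit; activity given as percentage of maximal AII effect.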

Experiment [5] addresses T2, hAT1R. Briefly: cell-based. The note with it: Low AT1R Expression; for EC50: read-out: BRET β-Arrestin2 Low AT1R Expression EC50.
In experiment [6] the target is T2, hAT1R. Kind of experiment: cell-based. As to conditions: agonist mode; for EC50: read-out: BRET P63 EC50.

With `CCCCc1ncc(C(=O)NCC(C)C)n1Cc1ccc(-c2cc(-c3ccccc3)ccc2-c2nn[nH]n2)cc1` [Example 368], in experiment [1], the EC50 is 59.8 nM and the “DiscoveRx β-arrestin2 Ymax (%)” value was determined as 39.1%. In experiment [2], the “BRET β-Arrestin2 High AT1R Expression Ymax (%)” value came to 82.6% and the EC50 amounted to 32.5 nM. Further, in experiment [3], the EC50 was 96.1 nM.

On to `CCCCc1ncc(C(=O)N2CCC2)n1Cc1ccc(-c2cc(-c3ccccc3)ccc2-c2nn[nH]n2)cc1` [Example 370], for which the EC50 in experiment [1] was determined as 16.3 nM; in experiment [2], 45.3 nM; in experiment [3] it was 71.9 nM. In addition, the “DiscoveRx β-arrestin2 Ymax (%)” value in experiment [1] amounted to 26.8%. In addition, the “BRET β-Arrestin2 High AT1R Expression Ymax (%)” value in experiment [2] is reported as 85.5%.

In the case of `CCCCc1nc(Cl)c(C(=O)O)n1Cc1ccc(-c2cc(-c3cc(N(C)C)ccn3)ccc2-c2nn[nH]n2)cc1` [Example 422, 2-butyl-4-chloro-1-((5′-(4-(dimethylamino)pyridin-2-yl)-2′-(2H-tetrazol-5-yl)-[1,1′-biphenyl]-4-yl)methyl)-1H-imidazole-5-carboxylic acid], the values for the EC50 in experiment [1] and in experiment [3] were 68.7 nM and 209 nM, respectively. In experiment [1], the “DiscoveRx β-arrestin2 Ymax (%)” value stood at 26.7%.

For `CCCCc1nc(Cl)c(C(=O)O)n1Cc1ccc(-c2cc(-c3cc(C)ccn3)ccc2-c2nn[nH]n2)cc1` [Example 420], in experiment [1], the EC50 is 6.5 nM and the “DiscoveRx β-arrestin2 Ymax (%)” value stood at 73.6%. The EC50 in experiment [3] was 79.7 nM.

Take `CCOc1nc2cccc(C(=O)O)c2n1Cc1ccc(-c2cc(N3CC(C)(C)c4ccccc43)ccc2C(=O)O)cc1` [Example 319, 1-((2′-carboxy-5′-(3,3-dimethylindolin-1-yl)-[1,1′-biphenyl]-4-yl)methyl)-2-ethoxy-1H-benzo[d]imidazole-7-carboxylic acid]: in experiment [1], the EC50 stood at 71.1 nM and the “DiscoveRx β-arrestin2 Ymax (%)” value came to 49.0%. Besides, the EC50 in experiment [3] amounted to 787 nM.

For the compound `CCCc1nc(CC)c(C(=O)OCc2oc(=O)oc2C)n1Cc1ccc(-c2cc(-c3ccccc3)ccc2-c2nn[nH]n2)cc1` [Example 412, (5-methyl-2-oxo-1,3-dioxol-4-yl)methyl 1-((6′-(2H-tetrazol-5-yl)-[1,1′:3′,1′″-terphenyl]-4-yl)methyl)-4-ethyl-2-propyl-1H-imidazole-5-carboxylate], in experiment [1], the EC50 turned out to be 11.7 nM and the “DiscoveRx β-arrestin2 Ymax (%)” value is reported as 64.1%. Also, in experiment [3], the EC50 worked out at 62.7 nM.

As for `CCOc1nc2cccc(C(=O)O)c2n1Cc1ccc(-c2cc(-c3cnc(OC)c(C)c3)ccc2-c2nn[nH]n2)cc1` [Example 328, 2-ethoxy-1-((5′-(6-methoxy-5-methylpyridin-3-yl)-2′-(2H-tetrazol-5-yl)-[1,1′-biphenyl]-4-yl)methyl)-1H-benzo[d]imidazole-7-carboxylic acid], in experiment [1], the EC50 was determined as 802 nM and the “DiscoveRx β-arrestin2 Ymax (%)” value was 51.8%. Also, the EC50 in experiment [3] turned out to be 2620 nM.

For `CCCCc1nc(Cl)c(C(=O)O)n1Cc1ccc(-c2cc(-n3ccc4ccccc43)ccc2-c2nn[nH]n2)cc1` [Example 417], in experiment [1], the EC50 is 5.9 nM and the “DiscoveRx β-arrestin2 Ymax (%)” value was determined as 39.6%. The EC50 in experiment [3] is > 100000 nM.

Take `CCCCc1nc(Cl)c(C(=O)O)n1Cc1ccc(-c2cc(-c3cc(OC)ccn3)ccc2-c2nn[nH]n2)cc1` [Example 421]: in experiment [1], the EC50 was 9.4 nM and the “DiscoveRx β-arrestin2 Ymax (%)” value was 38.5%. The EC50 in experiment [3] amounted to 92.5 nM.

As to `CCCCc1nc(Cl)c(C(=O)O)n1Cc1ccc(-c2cc(-n3ccc4ccccc43)ccc2-c2noc(=O)[nH]2)cc1` [Example 408], in experiment [1], the EC50 worked out at 23.3 nM and the “DiscoveRx β-arrestin2 Ymax (%)” value came out at 32.5%. For the same compound, the EC50 in experiment [3] was > 100000 nM.

Turning to `CCCCc1nc(Cl)c(C(=O)OCc2oc(=O)oc2C)n1Cc1ccc(-c2cc(-c3ccccc3)ccc2-c2nn[nH]n2)cc1` [Example 411], in experiment [1], a half-maximal response (EC50) required 30.9 nM and the “DiscoveRx β-arrestin2 Ymax (%)” value is 56.4%. Also, the EC50 in experiment [3] is 17 nM.

Take `CCOc1nc2cccc(C(=O)O)c2n1Cc1ccc(-c2cc(-c3ccc(OC)cn3)ccc2-c2noc(=O)[nH]2)cc1` [Example 308]: the EC50 in experiment [1] came to 29.1 nM; in experiment [3] it was 27.3 nM. In addition, the “DiscoveRx β-arrestin2 Ymax (%)” value in experiment [1] is 51.8%.

Take `CCCCc1nc(Cl)c(C(=O)O)n1Cc1ccc(-c2cc(N3CCC[C@H](C)C3)ccc2-c2noc(=O)[nH]2)cc1` [Example 407, (S)-2-butyl-4-chloro-1-((5′-(3-methylpiperidin-1-yl)-2′-(5-oxo-4,5-dihydro-1,2,4-oxadiazol-3-yl)-[1,1′-biphenyl]-4-yl)methyl)-1H-imidazole-5-carboxylic acid]: in experiment [1], the EC50 came to 173 nM and the “DiscoveRx β-arrestin2 Ymax (%)” value is listed as 24.6%. Further, in experiment [3], the EC50 turned out to be 16600 nM.

With `CCc1nc2c(C)cc(C)nc2n1Cc1ccc(-c2cc(-c3cc(C)cc(C)c3)ccc2-c2nn[nH]n2)cc1` [Example 9], in experiment [1], the EC50 was found to be 3.7 nM and the “DiscoveRx β-arrestin2 Ymax (%)” value was 66.7%. For the same compound, in experiment [4], the “IP-1 Ymax (%)” value amounted to 7.1% and the concentration for a half-maximal effect (EC50) amounted to 8.7 nM. In experiment [2], the “BRET β-Arrestin2 High AT1R Expression Ymax (%)” value is given as 87.8% and the midpoint of the response, the EC50, lay at 5.6 nM. Besides, in experiment [5], the “BRET β-Arrestin2 Low AT1R Expression Ymax (%)” value came to 80.3% and the EC50 was 9.4 nM. Further, in experiment [6], the “BRET P63 Ymax” value is listed as 14.2% and the EC50 came out at 19.5 nM.

Regarding `CCc1nc2c(C)cc(C)nc2n1Cc1ccc(-c2cc(-c3cccc(OC)c3)ccc2-c2nn[nH]n2)cc1` [Example 20], in experiment [1], a half-maximal effect (EC50) was put at 4.9 nM and the “DiscoveRx β-arrestin2 Ymax (%)” value is listed as 38.7%. Besides, in experiment [4], the “IP-1 Ymax (%)” value is reported as 9.9% and the EC50 came to 12.8 nM. In addition, in experiment [2], the “BRET β-Arrestin2 High AT1R Expression Ymax (%)” value was determined as 85.5% and the EC50 amounted to 4.3 nM. Also, in experiment [5], the “BRET β-Arrestin2 Low AT1R Expression Ymax (%)” value amounted to 59.5% and the EC50 is 12.2 nM. Moreover, in experiment [6], the “BRET P63 Ymax” value is given as 12.0% and the EC50 turned out to be 10.8 nM.
